# Results taken from patent US20150087722A1, “TREATMENT FOR BREAST TUMOR CELL METASTASIS” (China Medical University, priority 2012, published 2015).
# Tests used:
# [1] = test system: Liver Tumor Cell (Huh-7 cell strain); assay: MTT cell viability assay; format: cell-based; conditions: Homo sapiens
# [2] = test system: E-cadherin and Vimentin in cells of tumor inoculated nude mice; assay: immunochemistry staining of E-cadherin and Vimentin in tumors of nude mice; format: in vivo; conditions: 0.75 mg/Kg everyday
# Protocol: ICC includes embedding the tumor cells in paraffin and slicing the embedded cells into slides having a thickness of […] by a slicer, deparaffinizing, rehydrating and renaturating, picking the slide out and putting the slide into the primary antibody E-cadherin; reacting for 1.5 h and washing the slide for three times with PBS, reacting with the secondary antibody for 30 min and washing the slide for three times with PBS, staining the slide with 3′,3′-diaminobenzendine (DAB) at a ratio of 1:30, and the slide was mounted with Entellanz. The expression amount of signaling-related proteins in the cells of tumor inoculated nude mice was detected by an immunochemistry staining method. In this test the expression of E-cadherin and Vimentin was particularly detected. Immunochemistry staining method and the quantitative method thereof were described as in the test example 2-2, and it is not illustrated any further. FIG. 29 illustrates photomicrographs of expression results of signaling-related proteins in the cells of tumor inoculated nude mice after the cells were stained through the immunochemistry staining method. FIGS. 30 and 31 were respective quantitative results of primary antibody reaction.
# [3] = test system: Rat Skin Tumor Cell (B16F10 cell strain); assay: MTT cell viability assay; format: cell-based; conditions: Mus musculus, B16-F10
# [4] = test system: tumor inoculated nude mice; assay: histopathological examination (H&E staining) of tumor inoculated nude mice; format: in vivo; conditions: 0.75 mg/Kg everyday, magnification 400×
# Protocol: In the histopathological examination of tumor inoculated nude mice, the inoculated nude mice were examined through a histopathological H&E staining method. The tumor and internal organs were embedded in paraffin and sliced into slides having a thickness of […] by a slicer. Then after deparaffinizing, rehydrating and renaturating, the slide was washed with water twice and stained with Hematoxylin solution for 30-50 s. Then the slide was treated with 0.1% acetic acid-water and washed with water twice. At last the slide was stained with Eosin for 100 s and mounted with Histoclad.
# [5] = test system: Normal Keratinocyte Cell (HaCaT cell strain); assay: MTT cell viability assay; format: cell-based; conditions: Homo sapiens
# [6] = test system: breast tumor cells MDA-MB-231; assay: colony formation assay; format: cell-based, human; conditions: MDA-MB-231, 24 h treatment, FIG. 1B
# Text: In order to know the effect of the compound II on the colony formation of the breast tumor cells MDA-MB-231, the cells were observed through a colony formation assay.
# [7] = test system: Her-2/neu, p-Tyrosine, PI3K and Akt in breast tumor cells MDA-MB-453; assay: western blotting of Her-2/neu-related proteins; format: cell-based, human
# Protocol: The steps of western blotting include: washing cells with PBS twice at 4° C.; adding a lysis buffer and rubbing the cells by a rubbr policeman so as to lyse cells; putting the lysed cell solution into a 1.5 ml microcentrifuge tube and shaking for 1 min; centrifuging at 12000 rpm for 10 min and taking the supernatant; measuring concentration of the protein through a Bio-Rad protein assay kit; and storing the remained extracted protein solution at −70° C.; taking 100 μg protein solution and adding a SDS/protein loading buffer having the same volume, where the SDS/protein loading buffer has a concentration two times larger than the protein solution; boiling the mixture of the protein solution and the SDS/protein loading buffer at 100° C. for 10 min; cooling and loading the protein samples in each hole of gel; adjusting the voltage to 100 V and running the protein samples on the gel until the tracking dye in the sample buffer reaches the bottom of the gel; and subsequently transferring the protein from the gel using electrophoresis. A PVDF membrane was soaked in methanol until the paper was totally wet. The paper was arranged in a transfer tank placed in a 4° C. ice box, and the protein transfer was performed at a current of […] for 4 h. The PVDF membrane was then taken out, placed in a PBS blocking solution including 1% BSA and shaken for 2 h. Then the PVDF membrane was placed in a blocking solution including a primary antibody and slowly shaken at 100 rpm for 1 h at the room temperature. […] Then luminescence image equipment was used, where the PVDF was placed onto a black metal plate by a plastic pincer and the face including protein was upwards, a 1:1 mixed Chemiluminesent Substrate was added into the membrane and the exposure time depends on the fluorescence intensity of antibodies. […] FIG. 22 illustrates expression results of Her-2/neu-related proteins used for facilitating survival of tumor cells when compounds of formula (I) in different doses were added, which were detected by the western blotting. […]
# [8] = test system: human normal breast cells MCF-10A stimulated by TNF-α/TGF-β; assay: transwell invasion assay; format: cell-based; conditions: 2 μM with TNF-α/TGF-β 10 ng/ml simultaneously
SMILES,IC50 [1] [µM],expression amount of proteins used for facilitating tumor proliferation in tumor tissues [2],expression amount of proteins used for inhibiting tumor proliferation in tumor tissues [2],IC50 [3] [µM],mitosis state of tumor cells [4],IC50 [5] [µM],colony formation of breast tumor cells [6],expression of Her-2/neu and p-Tyrosine ([7]; 40 μM),"expression amount of p-Tyrosine activated by Her-2/neu ([7]; 10-60 μM, with increasing concentration)",protein expression of PI3K and Akt ([7]; high concentration),invasion of MCF-10A [8]
COC1=C(OC)C(=O)C(C)=C(C)C1=O [compound II],15.1,low,high,20.6,low mitosis state,35.2,significantly inhibit colony formation,totally inhibited,significantly decreased,inhibited,
COC1=C(OC)C(=O)C(C)=CC1=O [compound I],,,,,,,,,,,significantly decreased
